This note sets out measurements from patent US9604961B2, “Histone demethylase inhibitors” (Celgene Quanticel Research, Inc., priority 2012, dated 2017).

Holding throughout (format): biochemical
The target in assay [1] is JMJD2C (Homo sapiens (Human), UniProt Q9H3R0). As to the kind of experiment: JMJD2C in vitro enzyme inhibition assay (TR-FRET). Background: TR-FRET usually uses a lanthanide donor and a delayed reading to cut background.
Protocol: Baculovirus expressed JMJD2C (GenBank Accession #BC143571, AA 2-372) was purchased from BPS Bioscience (Cat#50105).
The ability of test compounds to inhibit the activity of JMJD2C was determined in 384-well plate format under the following reaction conditions: 0.3 nM JMJD2C, 300 nM H3K9me3-biotin labeled peptide (Anaspec cat #64360), 2 μM alpha-ketoglutaric acid in assay buffer of 50 mM HEPES, pH7.3, 0.005% Brij35, 0.5 mM TCEP, 0.2 mg/ml BSA, 50 μM sodium L-ascorbate, and 2 μM ammonium iron(II) sulfate. Reaction product was determined quantitatively by TR-FRET after the addition of detection reagent Phycolink Streptavidin-allophycocyanin (Prozyme) and Europium-anti-di-methylated histone H3 lysine 9 (H3K9me2) antibody (PerkinElmer) in the presence of 5 mM EDTA in LANCE detection buffer (PerkinElmer) at a final concentration of 50 nM and 1 nM, respectively.
The assay reaction was initiated by the following: 2 μl of the mixture of 900 nM H3K9me3-biotin labeled peptide and 6 μM alpha-ketoglutaric acid with 2 μl of 11-point serial diluted inhibitor in 3% DMSO were added to each well of the plate, followed by the addition of 2 μl of 0.9 nM JMJD2C to initiate the reaction. The reaction mixture was incubated at room temperature for 30 minutes, and terminated by the addition of 6 μl of 5 mM EDTA in LANCE detection buffer containing 100 nM Phycolink Streptavidin-allophycocyanin and 2 nM Europium-anti-H3K9me2 antibody. Plates were read by EnVisionMultilabel Reader in TR-FRET mode (excitation at 320 nm, emission at 615 nm and 665 nm) after 1 hour incubation at room temperature. A ratio was calculated (665/615) for each well and fitted to determine inhibition constant (IC50).
Assay [2] addresses Jarid1B (Homo sapiens (Human), UniProt Q9UGL1). As to the kind of experiment: Jarid1B in vitro enzyme inhibition assay (TR-FRET).
Assay [3] has as its target Jarid1A (Homo sapiens (Human), UniProt P29375). As to the kind of experiment: Jarid1A in vitro enzyme inhibition assay (TR-FRET). The source says: The enzymatic assay of Jarid1A activity is based upon Time Resolved-Fluorescence Resonance Energy Transfer (TR-FRET) detection.

Chain of Jarid1A (P29375 1-1090): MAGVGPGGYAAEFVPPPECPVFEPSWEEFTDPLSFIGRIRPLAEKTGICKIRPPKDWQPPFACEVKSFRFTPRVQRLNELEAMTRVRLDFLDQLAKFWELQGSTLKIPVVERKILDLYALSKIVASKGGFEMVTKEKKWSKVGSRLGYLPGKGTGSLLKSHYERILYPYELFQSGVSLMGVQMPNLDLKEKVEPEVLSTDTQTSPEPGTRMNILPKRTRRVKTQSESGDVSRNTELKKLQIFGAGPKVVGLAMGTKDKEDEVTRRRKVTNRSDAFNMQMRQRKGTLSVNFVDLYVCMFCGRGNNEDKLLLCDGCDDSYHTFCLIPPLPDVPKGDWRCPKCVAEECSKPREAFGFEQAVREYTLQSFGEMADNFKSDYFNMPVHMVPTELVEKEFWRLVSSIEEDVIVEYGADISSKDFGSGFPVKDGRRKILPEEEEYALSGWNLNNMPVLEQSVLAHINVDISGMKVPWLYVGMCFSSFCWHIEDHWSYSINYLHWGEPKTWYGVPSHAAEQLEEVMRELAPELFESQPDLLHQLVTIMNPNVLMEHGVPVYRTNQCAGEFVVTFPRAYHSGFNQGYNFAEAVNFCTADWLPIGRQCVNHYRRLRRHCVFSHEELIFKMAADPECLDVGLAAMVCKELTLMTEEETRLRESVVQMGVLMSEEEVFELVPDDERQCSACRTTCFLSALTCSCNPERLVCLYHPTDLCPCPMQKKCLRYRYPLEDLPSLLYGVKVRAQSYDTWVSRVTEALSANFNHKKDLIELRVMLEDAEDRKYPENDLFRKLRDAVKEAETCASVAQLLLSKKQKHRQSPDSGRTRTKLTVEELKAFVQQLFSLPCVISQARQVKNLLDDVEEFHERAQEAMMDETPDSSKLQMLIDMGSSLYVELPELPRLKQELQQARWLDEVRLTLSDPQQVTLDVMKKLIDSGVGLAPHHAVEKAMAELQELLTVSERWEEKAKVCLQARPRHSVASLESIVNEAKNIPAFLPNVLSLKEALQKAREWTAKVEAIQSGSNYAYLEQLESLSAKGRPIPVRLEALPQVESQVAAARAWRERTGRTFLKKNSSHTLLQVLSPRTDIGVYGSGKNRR
Chain of Jarid1B (Q9UGL1 2-751): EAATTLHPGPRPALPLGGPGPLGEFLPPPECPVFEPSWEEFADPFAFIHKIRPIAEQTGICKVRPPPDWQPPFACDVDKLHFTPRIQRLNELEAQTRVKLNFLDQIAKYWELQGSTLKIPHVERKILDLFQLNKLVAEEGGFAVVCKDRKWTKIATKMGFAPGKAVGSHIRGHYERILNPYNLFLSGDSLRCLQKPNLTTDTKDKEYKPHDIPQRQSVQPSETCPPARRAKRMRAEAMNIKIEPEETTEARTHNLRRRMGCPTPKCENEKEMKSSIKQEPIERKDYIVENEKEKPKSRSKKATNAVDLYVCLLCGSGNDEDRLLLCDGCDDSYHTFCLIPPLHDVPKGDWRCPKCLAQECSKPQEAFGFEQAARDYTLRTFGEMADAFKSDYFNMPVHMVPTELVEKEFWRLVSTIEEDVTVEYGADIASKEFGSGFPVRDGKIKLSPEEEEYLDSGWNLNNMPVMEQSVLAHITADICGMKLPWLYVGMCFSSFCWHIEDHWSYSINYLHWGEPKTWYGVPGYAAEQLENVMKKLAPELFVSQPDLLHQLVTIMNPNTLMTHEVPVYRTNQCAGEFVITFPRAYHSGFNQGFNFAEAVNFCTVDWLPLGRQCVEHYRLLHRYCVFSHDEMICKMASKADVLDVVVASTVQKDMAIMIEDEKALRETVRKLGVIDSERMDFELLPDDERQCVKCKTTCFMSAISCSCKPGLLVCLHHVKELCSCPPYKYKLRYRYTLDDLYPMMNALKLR
Chain of JMJD2C (Q9H3R0 2-372): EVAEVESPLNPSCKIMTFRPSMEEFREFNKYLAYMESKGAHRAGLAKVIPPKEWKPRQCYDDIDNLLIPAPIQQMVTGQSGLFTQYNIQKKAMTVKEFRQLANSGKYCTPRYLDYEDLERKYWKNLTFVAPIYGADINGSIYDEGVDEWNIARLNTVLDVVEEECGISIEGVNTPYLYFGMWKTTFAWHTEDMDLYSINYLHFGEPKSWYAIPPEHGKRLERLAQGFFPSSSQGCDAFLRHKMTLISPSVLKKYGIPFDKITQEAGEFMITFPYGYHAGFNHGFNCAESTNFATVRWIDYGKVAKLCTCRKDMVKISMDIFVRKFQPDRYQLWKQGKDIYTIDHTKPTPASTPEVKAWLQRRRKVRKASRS

`O=C(O)c1ccnc(-n2nccc2OCC2CCC(F)(F)CC2)c1` [Example 71, 2-{5-[(4,4-difluorocyclohexyl)methoxy]-1H-pyrazol-1-yl}pyridine-4-carboxylic acid]: the half-maximal inhibitory concentration (IC50) (usually the concentration that inhibits the measured activity by half) in assay [1] is 100 to 1000 nM; in assay [2] it was below 100 nM; in assay [3], below 100 nM.
On to `O=C(O)c1ccnc(-n2nccc2OCc2cccc(O)c2)c1` [Example 73, 2-{5-[(3-hydroxybenzyl)oxy]-1H-pyrazol-1-yl}pyridine-4-carboxylic acid], for which the 50% inhibitory concentration (IC50) in assay [1], in assay [2] and in assay [3] was below 100 nM each time.
As for `O=C(O)c1ccnc(-n2nccc2OCc2ccc(Cl)cc2F)c1` [Example 75, 2-{5-[(4-chloro-2-fluorobenzyl)oxy]-1H-pyrazol-1-yl}pyridine-4-carboxylic acid], the 50% inhibitory concentration (IC50) in assay [1], in assay [2] and in assay [3] was below 100 nM each time.
For the compound `O=C(O)c1ccnc(-n2nccc2OCc2ccc(F)c(Cl)c2)c1` [Example 76, 2-{5-[(3-chloro-4-fluorobenzyl)oxy]-1H-pyrazol-1-yl}pyridine-4-carboxylic acid], the IC50 in assay [1], in assay [2] and in assay [3] was below 100 nM throughout.
In the case of `O=C(O)c1ccnc(-n2nccc2OCc2ccc(C3CC3)cc2)c1` [Example 77, 2-{5-[(4-cyclopropylbenzyl)oxy]-1H-pyrazol-1-yl}pyridine-4-carboxylic acid], the results for the IC50 in assay [1], in assay [2] and in assay [3] were 100 to 1000 nM, below 100 nM and below 100 nM, respectively.
Turning to `CC(Oc1ccnn1-c1cc(C(=O)O)ccn1)c1ccc(F)cc1` (stereo not drawn) [Example 82, 2-[5-[1-(4-fluorophenyl)ethoxy]pyrazol-1-yl]pyridine-4-carboxylic acid], the 50% inhibitory concentration (IC50) in assay [1] was 100 to 1000 nM; in assay [2], below 100 nM; in assay [3], below 100 nM.
On to `O=C(O)c1ccnc(-n2nccc2OCC2CC(F)(F)C2)c1` [Example 83, 2-[5-[(3,3-difluorocyclobutyl)methoxy]pyrazol-1-yl]pyridine-4-carboxylic acid], for which the IC50 in assay [1], in assay [2] and in assay [3] was below 100 nM in each case.
On to `Cc1cnn(-c2cc(C(=O)O)ccn2)c1OCc1ccc(F)cc1` [Example 84, 2-[5-[(4-fluorophenyl)methoxy]-4-methylpyrazol-1-yl]pyridine-4-carboxylic acid], for which the 50% inhibitory concentration (IC50) in assay [1] is 100 to 1000 nM; in assay [2], below 100 nM; in assay [3], below 100 nM.
For `CCc1cnn(-c2cc(C(=O)O)ccn2)c1OCc1ccc(F)cc1` [Example 85, 2-[4-ethyl-5-[(4-fluorophenyl)methoxy]pyrazol-1-yl]pyridine-4-carboxylic acid], the IC50 in assay [1] was 100 to 1000 nM; in assay [2] it was below 100 nM; in assay [3] it was below 100 nM.
As to `O=C(O)c1ccnc(-n2nccc2OCc2ccc(F)cc2F)c1` [Example 86, 2-[5-[(2,4-difluorophenyl)methoxy]pyrazol-1-yl]pyridine-4-carboxylic acid], the IC50 in assay [1] was 100 to 1000 nM; in assay [2], below 100 nM; in assay [3], below 100 nM.
Regarding `O=C(O)c1ccnc(-n2nccc2OCc2ccc(Cl)cc2Cl)c1` [Example 88, 2-[5-[(2,4-dichlorophenyl)methoxy]pyrazol-1-yl]pyridine-4-carboxylic acid], the IC50 is 100 to 1000 nM in assay [1], below 100 nM in assay [2] and below 100 nM in assay [3].
Turning to `COc1cc(Cl)ccc1COc1ccnn1-c1cc(C(=O)O)ccn1` [Example 90, 2-[5-[(4-chloro-2-methoxyphenyl)methoxy]pyrazol-1-yl]pyridine-4-carboxylic acid], the half-inhibitory concentration (IC50) in assay [1], in assay [2] and in assay [3] was below 100 nM throughout.
Turning to `O=C(O)c1ccnc(-n2nccc2OCc2ccc(Cl)c(C(F)(F)F)c2)c1` [Example 91, 2-[5-[[4-chloro-3-(trifluoromethyl)phenyl]methoxy]pyrazol-1-yl]pyridine-4-carboxylic acid], the IC50 in assay [1] was 100 to 1000 nM; in assay [2] it was below 100 nM; in assay [3], below 100 nM.
As for `Cc1ccc(COc2ccnn2-c2cc(C(=O)O)ccn2)cc1F` [Example 93, 2-[5-[(3-fluoro-4-methylphenyl)methoxy]pyrazol-1-yl]pyridine-4-carboxylic acid], the IC50 in assay [1], in assay [2] and in assay [3] was below 100 nM throughout.
Regarding `Cc1ccc(COc2ccnn2-c2cc(C(=O)O)ccn2)c(F)c1F` [Example 94, 2-[5-[(2,3-difluoro-4-methylphenyl)methoxy]pyrazol-1-yl]pyridine-4-carboxylic acid], the IC50 in assay [1], in assay [2] and in assay [3] was below 100 nM throughout.
Turning to `CCc1ccc(COc2ccnn2-c2cc(C(=O)O)ccn2)cc1Cl` [Example 95, 2-[5-[(3-chloro-4-ethylphenyl)methoxy]pyrazol-1-yl]pyridine-4-carboxylic acid], the IC50 in assay [1] was 100 to 1000 nM; in assay [2], below 100 nM; in assay [3] it was below 100 nM.
As for `CCc1ccc(COc2ccnn2-c2cc(C(=O)O)ccn2)cc1F` [Example 96, 2-[5-[(4-ethyl-3-fluorophenyl)methoxy]pyrazol-1-yl]pyridine-4-carboxylic acid], the half-inhibitory concentration (IC50) is 100 to 1000 nM in assay [1], below 100 nM in assay [2] and below 100 nM in assay [3].
For the compound `N#Cc1cccc(COc2ccnn2-c2cc(C(=O)O)ccn2)c1` [Example 97, 2-[5-[(3-cyanophenyl)methoxy]pyrazol-1-yl]pyridine-4-carboxylic acid], the IC50 in assay [1], in assay [2] and in assay [3] was below 100 nM each time.
As for `O=C(O)c1ccnc(-n2ncc(CCO)c2OCc2ccc(F)cc2)c1` [Example 109, 2-[5-[(4-fluorophenyl)methoxy]-4-(2-hydroxyethyl)pyrazol-1-yl]pyridine-4-carboxylic acid], the figures for the half-inhibitory concentration (IC50) in assay [1], in assay [2] and in assay [3] were 1000 to 10000 nM, below 100 nM and below 100 nM, respectively.
Turning to `CN(C)CCc1cnn(-c2cc(C(=O)O)ccn2)c1OCc1ccc(F)cc1` [Example 110, 2-[4-[2-(dimethylamino)ethyl]-5-[(4-fluorophenyl)methoxy]pyrazol-1-yl]pyridine-4-carboxylic acid], the IC50 in assay [1] was 100 to 1000 nM; in assay [2], below 100 nM; in assay [3], below 100 nM.
As to `CC(C)Oc1cc(Cl)ccc1COc1ccnn1-c1cc(C(=O)O)ccn1` [Example 113, 2-[5-[(4-chloro-2-propan-2-yloxyphenyl)methoxy]pyrazol-1-yl]pyridine-4-carboxylic acid], the IC50 in assay [1] fell in the range of 1000 to 10000 nM; in assay [2], 100 to 1000 nM; in assay [3] it was 100 to 1000 nM.
Take `CCC(C)Oc1cc(Cl)ccc1COc1ccnn1-c1cc(C(=O)O)ccn1` (stereo not drawn) [Example 114, 2-[5-[(2-butan-2-yloxy-4-chlorophenyl)methoxy]pyrazol-1-yl]pyridine-4-carboxylic acid]: the IC50 fell in the range of 1000 to 10000 nM in assay [1], 100 to 1000 nM in assay [2] and 100 to 1000 nM in assay [3].
`COCCOc1cc(Cl)ccc1COc1ccnn1-c1cc(C(=O)O)ccn1` [Example 116, 2-[5-[[4-chloro-2-(2-methoxyethoxy)phenyl]methoxy]pyrazol-1-yl]pyridine-4-carboxylic acid]: the IC50 in assay [1] was 100 to 1000 nM; in assay [2], below 100 nM; in assay [3], below 100 nM.
Consider `O=C(O)c1ccnc(-n2nccc2OCc2ccc(F)cc2/C=C/c2ccc(F)cc2)c1` [Example 119, 2-[5-[[4-fluoro-2-[(E)-2-(4-fluorophenyl)ethenyl]phenyl]methoxy]pyrazol-1-yl]pyridine-4-carboxylic acid], for which the figures for the IC50 in assay [1], in assay [2] and in assay [3] were 1000 to 10000 nM, 100 to 1000 nM and 100 to 1000 nM, respectively.
Turning to `O=C(O)c1ccnc(-n2nccc2OCc2ccc(Cl)cc2/C=C/c2ccc(F)cc2)c1` [Example 120, 2-[5-[[4-chloro-2-[(E)-2-(4-fluorophenyl)ethenyl]phenyl]methoxy]pyrazol-1-yl]pyridine-4-carboxylic acid], the half-maximal inhibitory concentration (IC50) in assay [1] lay in the range of 1000 to 10000 nM; in assay [2], 100 to 1000 nM; in assay [3], 100 to 1000 nM.
On to `O=C(O)c1ccnc(-n2nccc2OCc2ccc(F)cc2CCc2ccc(F)cc2)c1` [Example 121, 2-[5-[[4-fluoro-2-[2-(4-fluorophenyl)ethyl]phenyl]methoxy]pyrazol-1-yl]pyridine-4-carboxylic acid], for which the IC50 in assay [1] is 1000 to 10000 nM; in assay [2], 100 to 1000 nM; in assay [3], 100 to 1000 nM.
As to `O=C(O)c1ccnc(-n2nccc2OCc2ccc(Cl)cc2CCc2ccc(F)cc2)c1` [Example 122, 2-[5-[[4-chloro-2-[2-(4-fluorophenyl)ethyl]phenyl]methoxy]pyrazol-1-yl]pyridine-4-carboxylic acid], the half-inhibitory concentration (IC50) in assay [1] was 1000 to 10000 nM; in assay [2] it was 100 to 1000 nM; in assay [3], 100 to 1000 nM.
Regarding `O=C(O)c1ccnc(-n2nccc2OCc2cccc3c2OCC3)c1` [Example 123, 2-[5-(2,3-dihydro-1-benzofuran-7-ylmethoxy)pyrazol-1-yl]pyridine-4-carboxylic acid], the IC50 in assay [1] was 100 to 1000 nM; in assay [2], below 100 nM; in assay [3], below 100 nM.
In the case of `CCc1cc(C#N)ccc1COc1ccnn1-c1cc(C(=O)O)ccn1` [Example 126, 2-[5-[(4-cyano-2-ethylphenyl)methoxy]pyrazol-1-yl]pyridine-4-carboxylic acid], the IC50 is 100 to 1000 nM in assay [1], below 100 nM in assay [2] and below 100 nM in assay [3].
Take `Cc1cc(F)ccc1COc1ccnn1-c1cc(C(=O)O)ccn1` [Example 128, 2-[5-[(4-fluoro-2-methylphenyl)methoxy]pyrazol-1-yl]pyridine-4-carboxylic acid]: the half-inhibitory concentration (IC50) is 100 to 1000 nM in assay [1], below 100 nM in assay [2] and below 100 nM in assay [3].
As for `CCc1cc(F)ccc1COc1ccnn1-c1cc(C(=O)O)ccn1` [Example 129, 2-[5-[(2-ethyl-4-fluorophenyl)methoxy]pyrazol-1-yl]pyridine-4-carboxylic acid], the IC50 is 100 to 1000 nM in assay [1], below 100 nM in assay [2] and below 100 nM in assay [3].
